Values belong to the compound of their own block, whether it stands above or below them.
Key:
[1] = tested on: Normal human lung fibroblasts; assay: αSMA imaging, TGFβ-induced αSMA expression; format: cell-based; conditions: TGFβ 5 ng/mL, pre-treated 30 minutes, MK-0429 (10 µM) or SB-525334 (10 μM), 48 hours
Description: αSMA imaging. Primary cells (passage 3-5) were grown on Cell carrier Ultra, collagen Type 1 coated 96-well plates (Perkin Elmer, #6055700) at a density of 25,000 cells/well. Once the cells adhere, they were starved in serum free media for 24 hours followed by addition of treatments, i.e., 5 ng/mL TGFβ (Biolegend #580702)±inhibitors. Cells were pre-treated with inhibitors for 30 minutes prior to the addition of TGFβ stimulation. 48 hours post treatment, the cells were fixed in 4% methanol free paraformaldehyde (ThermoFisher Scientific #28908) for 20 minutes at room temperature and incubated with anti-alpha smooth muscle Actin antibody (Abcam #ab7817) at 1:4000 overnight at 4° C. Following primary antibody incubation, cells were incubated with Goat anti-mouse secondary antibody (ThermoFisher Scientific #A32723) at 1:500 and Hoechst (ThermoFisher Scientific #62249) at 1:1000 for one hour at RT. The fixed and stained cells were images for immunofluorescence on Perkin Elmer's Opera Phenix high content Imager.

[2] = Plasma PK analysis in bleomycin model (LC-MS/MS); format: in vivo; conditions: mouse, two hours after the last dose at end of study; MK-0429 200 mpk osmotic minipump, Nintedanib 60 mpk po qd
Description: Mice at 12˜13 weeks of age were randomized to five groups: saline, bleomycin instillation with vehicle (osmotic minipump), bleomycin instillation with MK-0429 treatment, bleomycin instillation with vehicle oral treatment, and bleomycin instillation with Nintedanib treatment. All mice were anaesthetized with isoflurane. Bleomycin was dosed by intratracheal (i.t) instillation in a volume of 50 μL, at a dose of 1 unit/kg body weight. After instillation, mice were kept in a heads-up position for 2-5 minutes before putting into cages. MK-0429 (200 mg/kg) was administered by Osmotic pump from day 5 to day 14 and Nintedanib (60 mg/kg) was administered, p.o., q.d., for 14 days. Vehicle was dosed orally at 10 am daily from the day 5 to the end of the studies and dosing volume was 10 mL/kg. For plasma PK analysis, an aliquot of 50 μL plasma was spiked into a 96-well plate, and 200 μL of acetonitrile containing internal standard were added for protein precipitation. The mixture was vortexed, centrifuged at 4000 rpm for 20 minutes. Then 50 μL of supernatant fraction was mixed with 200 μL H2O and the final solution were injected for LC-MS/MS analysis. The methods for quantitative analysis were developed on UPLC (Waters) chromatographic system equipped with an API4000 QTrap™ mass spectrometer (Applied Biosystems, Concord, Ontario, Canada). […]

[3] = tested on: bleomycin-induced lung fibrosis mouse model; assay: Mouse bleomycin lung fibrosis model; format: in vivo; conditions: MK-0429 200 mpk osmotic minipump, Nintedanib 60 mpk po qd
Description: Mouse bleomycin lungfibrosis models. Adult male C57BL/6 mice (Taconic, Rensselaer, NY) were housed in a temperature and humidity-controlled facility with a 12-hour light: 12-hour dark cycle. Animals had ad libitum access to food (Purina Rodent Chow 5053, LabDiet, St. Louis, MO) and water. All procedures utilizing experimental animals were conducted in accordance with the Guide for the Care and Use of Laboratory Animals, and experimental procedures were reviewed and approved by the Institutional Animal Care and Use Committee at MRL, Kenilworth, NJ.
For osmotic minipump implantation, trifluoroacetate (TFA) salt of MK-0429 was formulated in 50% dimethylsulfoxide (DMSO)/50% H2O at a concentration of 416 mg/mL. MK-0429 or vehicle solution were filled in minipumps (Alzet, #1007D, flow rate 0.5 μL/hour). Minipumps were placed in mice subcutaneously in a pocket on the back between the shoulder blades. A small incision was made and a subcutaneous pocket formed by blunt dissection. A sterile minipump was inserted into the subcutaneous pocket. The incision was closed with staples or non-absorbable suture or absorbable (subcuticular) suture. The minipumps were used for continuous drug delivery for two weeks.
Mice at 12˜13 weeks of age were randomized to five groups: saline, bleomycin instillation with vehicle (osmotic minipump), bleomycin instillation with MK-0429 treatment, bleomycin instillation with vehicle oral treatment, and bleomycin instillation with Nintedanib treatment. All mice were anaesthetized with isoflurane. Bleomycin was dosed by intratracheal (i.t) instillation in a volume of 50 μL, at a dose of 1 unit/kg body weight. After instillation, mice were kept in a heads-up position for 2-5 minutes before putting into cages. MK-0429 (200 mg/kg) was administered by Osmotic pump from day 5 to day 14 and Nintedanib (60 mg/kg) was administered, p.o., q.d., for 14 days. Vehicle was dosed orally at 10 am daily from the day 5 to the end of the studies and dosing volume was 10 mL/kg. For plasma PK analysis, an aliquot of 50 μL plasma was spiked into a 96-well plate, and 200 μL of acetonitrile containing internal standard were added for protein precipitation. The mixture was vortexed, centrifuged at 4000 rpm for 20 minutes. Then 50 μL of supernatant fraction was mixed with 200 μL H2O and the final solution were injected for LC-MS/MS analysis. The methods for quantitative analysis were developed on UPLC (Waters) chromatographic system equipped with an API4000 QTrap™ mass spectrometer (Applied Biosystems, Concord, Ontario, Canada). Analyst 1.5 software packages (Applied Biosystems) were used to control the LC-MS/MS system and data acquisition and processing.
Histopathology analysis. Upon completion of the study, animals were euthanized and tissues were collected for histological assessment. Lung tissues were perfused with 10% formalin, fixed for 24 hours, and then paraffin embedded. Tissue sections were stained with hematoxylin & eosin (H&E) and Masson's trichrome, subsequently evaluated under light microscope. The severity of histopathologic changes and fibrosis in the lung were graded as described previously by pathologists (Ashcroft et al., J. Clin. Pathol. 41, 467-470 (1988); Hubner et al., Biotechniques 44(507-511), 514-607 (2008)). Following deparaffinization and rehydration, each lung tissue section was processed to identify αSMA deposition by immunohistochemistry. The primary antibodies used were αSMA antibody from Sigma. The Aperio ScanScope™ XT Slide Scanner (Aperio Technologies) system was used to capture whole slide digital images with a 20×objective. Digital images were managed using Aperio Spectrum™. The positive stains were identified and quantified using a macro created from a color deconvolution algorithm (Aperio Technologies). Statistical analysis was performed by using One-way ANOVA followed by Tukey's test.

[4] = 14 days treatment, vs BLM-vehicle

Structure (SMILES): Cc1cccc(-c2[nH]c(C(C)(C)C)nc2-c2ccc3nccnc3c2)n1 [SB-525334, reference compound]
- αSMA intensity and the percentage of stimulated cells following TGFβ treatment [1]: significantly reduced

- mean plasma concentration [2]: 656+229 ng/mL
Structure (SMILES): COC(=O)c1ccc2c(c1)NC(=O)/C2=C(\Nc1ccc(N(C)C(=O)CN2CCN(C)CC2)cc1)c1ccccc1 [Nintedanib, reference compound]
- body weight difference vs bleomycin group [3]: no significant body weight difference
- BALF TIMP-1 content [3, 4]: significantly decreased
- bleomycin-induced αSMA expression (IHC) [3, 4]: significantly decreased
- inflammation in the lung [3, 4]: decreased inflammation
- modified Ashcroft score [3, 4]: significantly improved
